Measurements published in PubChem BioAssay (NCI).
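96-well plates; 48 h exposure; 5 concentrations. Endpoints by linear interpolation between flanking doses. Not reached: highest tested concentration assigned. TGI: total growth inhibition.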

Tests used:
Assay in all cases: NCI tumour cell line growth inhibition, 48 h
[1] = system: A498 renal
[2] = system: KM12 colon
[3] = system: EKVX NSCLC
[4] = system: TK-10 renal
[5] = system: OVCAR-8 ovarian
[6] = system: SN12C renal
[7] = system: CAKI-1 renal
[8] = system: LOX IMVI melanoma
[9] = system: M14 melanoma
[10] = system: NCI-H23 lung
[11] = system: OVCAR-3 ovarian
[12] = system: HCC-2998 colon
[13] = system: SW-620 colon
[14] = system: MOLT-4 leukemia
[15] = system: OVCAR-4 ovarian
[16] = system: NCI-H522 lung
[17] = system: OVCAR-5 ovarian
[18] = system: HL-60(TB) leukemia
[19] = system: UACC-257 melanoma
[20] = system: T-47D breast
[21] = system: UO-31 renal
[22] = system: U251 CNS
[23] = system: MALME-3M melanoma
[24] = system: CCRF-CEM leukemia
[25] = system: SK-MEL-2 melanoma
[26] = system: SF-539 CNS
[27] = system: MDA-MB-435
[28] = system: SK-MEL-5 melanoma
[29] = system: SK-MEL-28 melanoma
[30] = system: NCI-H226 lung
[31] = system: K-562 leukemia
[32] = system: BT-549 breast
[33] = system: MDA-MB-231 breast
[34] = system: SNB-75 CNS
[35] = system: NCI/ADR-RES ovarian
[36] = system: SK-OV-3 ovarian
[37] = system: A549 NSCLC
[38] = system: ACHN renal
[39] = system: PC-3 prostate
[40] = system: IGROV1 ovarian
[41] = system: NCI-H460 lung
[42] = system: 786-0 renal
[43] = system: RPMI-8226 leukemia
[44] = system: HOP-62 NSCLC
[45] = system: MCF7 breast
[46] = system: SR leukemia
[47] = system: UACC-62 melanoma
[48] = system: HCT-116 colon
[49] = system: COLO 205 colon
[50] = system: HCT-15 colon
[51] = system: SNB-19 CNS
[52] = system: DU-145 prostate
[53] = system: RXF 393 renal
[54] = system: HT29 colon
[55] = system: SF-295 CNS
[56] = system: MDA-N
[57] = system: HOP-92 NSCLC
[58] = system: SF-268 CNS
[59] = system: HS 578T breast

With `CCCCC(C(=O)NCCNC(=O)CCC(=O)N(C)O)C(=O)NCCNC(=O)CCC(=O)N(C)O` the TGI [1] was > 100 µM, the TGI [2] was > 100 µM and the TGI [3] was > 100 µM. The TGI [4] was > 100 µM, the TGI [5] was > 100 µM and the TGI [6] was > 100 µM. For the same compound, the TGI [7] was > 100 µM, the TGI [8] was > 100 µM and the TGI [9] was > 100 µM. For the same compound, the TGI [10] was > 100 µM, the TGI [11] was > 100 µM and the TGI [12] was > 100 µM. The TGI [13] was > 100 µM, the TGI [14] was > 100 µM and the TGI [15] was > 100 µM. The TGI [16] was > 100 µM, the TGI [17] was > 100 µM and the TGI [18] was > 100 µM. The TGI [19] was > 100 µM, the TGI [20] was > 100 µM and the TGI [21] was > 100 µM. The TGI [22] was > 100 µM, the TGI [23] was > 100 µM and the TGI [24] was > 100 µM. The TGI [25] was > 100 µM, the TGI [26] was > 100 µM and the TGI [27] was > 100 µM. The TGI [28] was > 100 µM, the TGI [29] was > 100 µM and the TGI [30] was > 100 µM. For the same compound, the TGI [31] was > 100 µM, the TGI [32] was > 100 µM and the TGI [33] was > 100 µM. The TGI [34] was > 100 µM, the TGI [35] was > 100 µM and the TGI [36] was > 100 µM. The TGI [37] was > 100 µM, the TGI [38] was > 100 µM and the TGI [39] was > 100 µM. The TGI [40] was > 100 µM, the TGI [41] was > 100 µM and the TGI [42] was > 100 µM. The TGI [43] was > 100 µM, the TGI [44] was > 100 µM and the TGI [45] was > 100 µM. For the same compound, the TGI [46] was > 100 µM, the TGI [47] was > 100 µM and the TGI [48] was > 100 µM. For the same compound, the TGI [49] was > 100 µM, the TGI [50] was > 100 µM and the TGI [51] was > 100 µM. The TGI [52] was > 100 µM, the TGI [53] was > 100 µM and the TGI [54] was > 100 µM. For the same compound, the TGI [55] was > 100 µM, the TGI [56] was > 100 µM and the TGI [57] was > 100 µM.
With `CSC(=S)N(C)C` the TGI [1] was > 100 µM, the TGI [2] was > 100 µM and the TGI [3] was > 100 µM. For the same compound, the TGI [4] was > 100 µM, the TGI [5] was > 100 µM and the TGI [6] was > 100 µM. For the same compound, the TGI [7] was > 100 µM, the TGI [8] was > 100 µM and the TGI [9] was > 100 µM. The TGI [10] was > 100 µM, the TGI [11] was > 100 µM and the TGI [13] was > 100 µM. The TGI [14] was > 100 µM, the TGI [16] was > 100 µM and the TGI [17] was > 100 µM. For the same compound, the TGI [18] was > 100 µM, the TGI [19] was > 100 µM and the TGI [20] was > 100 µM. For the same compound, the TGI [21] was > 100 µM, the TGI [22] was > 100 µM and the TGI [23] was > 100 µM. The TGI [58] was > 100 µM, the TGI [24] was > 100 µM and the TGI [25] was > 100 µM. For the same compound, the TGI [26] was > 100 µM, the TGI [27] was > 100 µM and the TGI [28] was > 100 µM. For the same compound, the TGI [29] was > 100 µM, the TGI [59] was > 100 µM and the TGI [30] was > 100 µM. For the same compound, the TGI [31] was > 100 µM, the TGI [32] was > 100 µM and the TGI [33] was > 100 µM. The TGI [34] was > 100 µM, the TGI [35] was > 100 µM and the TGI [36] was > 100 µM. The TGI [37] was > 100 µM, the TGI [40] was > 100 µM and the TGI [41] was > 100 µM. For the same compound, the TGI [42] was > 100 µM, the TGI [43] was > 100 µM and the TGI [44] was > 100 µM. The TGI [45] was > 100 µM, the TGI [46] was > 100 µM and the TGI [47] was > 100 µM. For the same compound, the TGI [48] was > 100 µM, the TGI [49] was > 100 µM and the TGI [50] was > 100 µM. For the same compound, the TGI [51] was > 100 µM, the TGI [52] was > 100 µM and the TGI [53] was > 100 µM. For the same compound, the TGI [54] was > 100 µM, the TGI [55] was > 100 µM and the TGI [56] was > 100 µM. For the same compound, the TGI [57] was > 100 µM.
With `COc1cccc2c1OC1(C=C2)Oc2ccccc2C(=O)N1C` (stereo not drawn) the TGI [1] was 57.4 µM, the TGI [2] was > 100 µM and the TGI [3] was > 100 µM. The TGI [4] was > 100 µM, the TGI [5] was 54.4 µM and the TGI [6] was > 100 µM. The TGI [7] was > 100 µM, the TGI [8] was 14.5 µM and the TGI [9] was > 100 µM. The TGI [10] was > 100 µM, the TGI [11] was > 100 µM and the TGI [12] was 77.8 µM. For the same compound, the TGI [13] was > 100 µM, the TGI [14] was 81.4 µM and the TGI [15] was > 100 µM. The TGI [16] was > 100 µM, the TGI [17] was > 100 µM and the TGI [18] was 75.9 µM. The TGI [19] was > 100 µM, the TGI [20] was 99 µM and the TGI [21] was > 100 µM. The TGI [22] was > 100 µM, the TGI [58] was > 100 µM and the TGI [24] was 46.2 µM. The TGI [25] was > 100 µM, the TGI [27] was 59.8 µM and the TGI [28] was > 100 µM. For the same compound, the TGI [29] was > 100 µM, the TGI [59] was 81.8 µM and the TGI [30] was 95.9 µM. The TGI [31] was > 100 µM, the TGI [32] was 88.2 µM and the TGI [33] was > 100 µM. It also gave a TGI [34] of 74.1 µM, a TGI [35] of 26.9 µM and a TGI [36] of 74.3 µM. For the same compound, the TGI [37] was > 100 µM, the TGI [38] was > 100 µM and the TGI [39] was > 100 µM. For the same compound, the TGI [40] was > 100 µM, the TGI [41] was 98.6 µM and the TGI [42] was > 100 µM. For the same compound, the TGI [43] was > 100 µM, the TGI [44] was > 100 µM and the TGI [45] was > 100 µM. For the same compound, the TGI [46] was 54.2 µM, the TGI [47] was > 100 µM and the TGI [48] was > 100 µM. For the same compound, the TGI [49] was > 100 µM, the TGI [50] was > 100 µM and the TGI [51] was > 100 µM. For the same compound, the TGI [52] was > 100 µM, the TGI [53] was > 100 µM and the TGI [54] was > 100 µM. The TGI [55] was 97.9 µM, the TGI [56] was 44.9 µM and the TGI [57] was 98.2 µM.
`CCN(CCCN(CC)C(=O)Nc1c(C)cccc1C)C(=O)Nc1c(C)cccc1C` was tested, and the TGI [1] was > 100 µM, the TGI [2] was > 100 µM and the TGI [3] was > 100 µM. For the same compound, the TGI [4] was > 100 µM, the TGI [5] was > 100 µM and the TGI [6] was > 100 µM. For the same compound, the TGI [7] was > 100 µM, the TGI [8] was > 100 µM and the TGI [9] was > 100 µM. For the same compound, the TGI [10] was > 100 µM, the TGI [12] was > 100 µM and the TGI [13] was > 100 µM. For the same compound, the TGI [14] was > 100 µM, the TGI [15] was > 100 µM and the TGI [16] was > 100 µM. For the same compound, the TGI [17] was > 100 µM, the TGI [19] was > 100 µM and the TGI [20] was > 100 µM. The TGI [21] was > 100 µM, the TGI [22] was > 100 µM and the TGI [23] was > 100 µM. For the same compound, the TGI [58] was > 100 µM, the TGI [25] was > 100 µM and the TGI [27] was > 100 µM. For the same compound, the TGI [28] was > 100 µM, the TGI [29] was > 100 µM and the TGI [59] was > 100 µM. For the same compound, the TGI [30] was > 100 µM, the TGI [31] was > 100 µM and the TGI [32] was > 100 µM. The TGI [33] was > 100 µM, the TGI [34] was > 100 µM and the TGI [35] was > 100 µM. For the same compound, the TGI [36] was > 100 µM, the TGI [37] was > 100 µM and the TGI [38] was > 100 µM. The TGI [39] was > 100 µM, the TGI [40] was > 100 µM and the TGI [41] was > 100 µM. For the same compound, the TGI [42] was > 100 µM, the TGI [43] was > 100 µM and the TGI [44] was > 100 µM. For the same compound, the TGI [45] was > 100 µM, the TGI [47] was > 100 µM and the TGI [48] was > 100 µM. For the same compound, the TGI [49] was > 100 µM, the TGI [50] was > 100 µM and the TGI [51] was > 100 µM. The TGI [52] was > 100 µM, the TGI [53] was > 100 µM and the TGI [54] was > 100 µM. For the same compound, the TGI [55] was > 100 µM, the TGI [56] was > 100 µM and the TGI [57] was > 100 µM.
